Test results: patent US20060172993A1 (priority 2002, published 2006)
Marks after values point to notes of the source that are not given here.

Tests used:
[1] = test system: Patients diagnosed with Alzheimer's Disease; assay: ADAS-cog/11 cognitive subscale, 5-month placebo-controlled trial; type: in vivo, human; conditions: for ADAS-cog/11 responders, change ≦ 0 points, % / ADAS-cog/11 responders, change ≦ −4 points, % / ADAS-cog/11 responders, change ≦ −7 points, % / ADAS-cog/11 responders, change ≦ −10 points, %: Month 5
Description: (§1) Subjects in the Placebo group received 21 weeks (5 months) of placebo medication.
The ADAS consists of two parts—a cognitive subscale and a behavioral subscale. The behavioral subscale was not be used in this study. The cognitive subscale, the ADAS--cog-11, consisted of Word Recall and Word Recognition memory tests, Object and Finger Naming, Commands, Constructional Praxis, Ideational Praxis, Orientation, Remembering Test Instructions, Spoken language Ability, Comprehension of Spoken language and Word Finding Difficulty was the primary variable in this study.
The ADAS was performed at visits 1, 2, 3, 4 and 5 (screening, baseline, week 4, week 13 and month 5 or upon early discontinuation of trial medication intake). For word recall and word recognition two parallel wordlists, list A and list B were employed. List A was used at visits 1 and 3, List B at visits 2, 4, and 5 or upon early discontinuation of trial medication intake. For practical reasons the words for word recognition was presented only once. The total score of the 11 cognitive items on the original ADAS cognitive subscale (ADAS-cog/11, Range: 0-70) was recorded.
Between treatment groups comparisons (with particular focus on differences from placebo) were done at each scheduled time interval and for each endpoint imputation scheme. These comparisons will be based on the change from baseline scores for efficacy parameters with baseline (e.g., ADAS-cog/11) and the original scored for efficacy parameters without baseline e.g., CIBIC-plus).
For continuous data, a two-way analysis of variance (ANOVA) model with treatment and investigator as factors were used to compare the treatment groups for the change from baseline data. The interaction between treatment and investigator was examined. The impact of the baseline score on change from baseline was evaluated. […] If the parametric methods were deemed inappropriate (normality assumption violated), nonparametric methods such as two-way ANOVA on ranked data, Van Elteren test, controlling for investigator, was used. Following ANOVA, Fisher's LSD procedure was used for pairwise comparisons between each galanthamine group and the placebo group. A linear contrast on the main effect for treatment was used to test the dose response relationship.

[2] = test system: Patients diagnosed with Alzheimer's Disease; assay: CIBIC-plus (Clinician's Interview Based Impression of Change Plus Family Input); type: in vivo, human
Procedure: as §1
The CIBIC-plus score was a second primary variable. An independent, experienced and properly trained clinician provided a global impression of the subject's deterioration or improvement over the course of the trial, based on separate interviews with the subject and caregivers. If helpful, the CIBIC rater audiotaped or videotaped the baseline interview for future reference.
The CIBIC-plus was performed at visit 2, 3, 4, and 5 (baseline, week 4, week 13, and month 5 or upon early discontinuation of trial medication intake). Only a trained CIBIC rater performed the test.
For ordinal categorical variables such as the CIBIC-plus score, the Van Elteren test controlling for investigator was used for the between group comparison. For the nominal data (e.g., events rates), the Cochran-Mantel-Haenszel test for general association controlling for investigator was used. A linear contrast on the proportion of patients that stay the same or improve was used to test for increasing response with increasing dose.

[3] = test system: humans; conditions: cited from earlier work

COc1ccc2c3c1O[C@H]1C[C@@H](O)C=C[C@@]31CCN(C)C2 [GAL, galantamine]
Change from baseline in ADAS-cog/11 at Month 5, Mean ([1]; 8 mg/day, LOCF): 0.4 | ADAS-cog/11 responders, change ≦ 0 points, % ([1]; 8 mg/day): (46.5) % | ADAS-cog/11 responders, change ≦ −4 points, % ([1]; 8 mg/day): (25.7) % | ADAS-cog/11 responders, change ≦ −7 points, % ([1]; 8 mg/day): (13.9) % | ADAS-cog/11 responders, change ≦ −10 points, % ([1]; 8 mg/day): (5.9) % | Change from baseline in ADAS-cog/11 at Month 5, Mean ([1]; 8 mg/day, observed case): 0.1 | Change from baseline in ADAS-cog/11 at Month 5, Mean ([1]; 16 mg/day, LOCF): −1.4 | ADAS-cog/11 responders, change ≦ 0 points, % ([1]; 16 mg/day): (65.4)***^‡ % | ADAS-cog/11 responders, change ≦ −4 points, % ([1]; 16 mg/day): (35.6)***♦ % | ADAS-cog/11 responders, change ≦ −7 points, % ([1]; 16 mg/day): (15.9)** % | ADAS-cog/11 responders, change ≦ −10 points, % ([1]; 16 mg/day): (7.2) % | ADAS-cog/11 responders, change ≦ −7 points, % ([1]; 16 mg/day, listed as galantamine): 15.9% | Change from baseline in ADAS-cog/11 at Month 5, Mean ([1]; 16 mg/day, observed case): −1.5 | Change from baseline in ADAS-cog/11 at Month 5, Mean ([1]; 24 mg/day, LOCF): −1.4 | ADAS-cog/11 responders, change ≦ 0 points, % ([1]; 24 mg/day): (64.9)***^‡ % | ADAS-cog/11 responders, change ≦ −4 points, % ([1]; 24 mg/day): (37.0)***^† % | ADAS-cog/11 responders, change ≦ −7 points, % ([1]; 24 mg/day): (22.3)***♦♦ % | ADAS-cog/11 responders, change ≦ −10 points, % ([1]; 24 mg/day): (10.4)** % | ADAS-cog/11 responders, change ≦ −7 points, % ([1]; 24 mg/day, listed as galantamine): 22.3% | Change from baseline in ADAS-cog/11 at Month 5, Mean ([1]; 24 mg/day, observed case): −1.8 | CIBIC-plus at Month 5 improved/no change, % of patients ([2]; 8 mg/day, LOCF): (53%) | CIBIC-plus at Month 5 improved/no change, % of patients ([2]; 8 mg/day, observed case): (51%) | CIBIC-plus at Month 5 improved/no change, % of patients ([2]; 16 mg/day, LOCF): (66%)***^† | CIBIC-plus at Month 5 improved/no change, % of patients ([2]; 16 mg/day, observed case): (68%)***^† | CIBIC-plus at Month 5 improved/no change, % of patients ([2]; 16 mg/day, observed case, listed as galantamine): 68% | CIBIC-plus at Month 5 improved/no change, % of patients ([2]; 24 mg/day, LOCF): (64%)***^‡ | CIBIC-plus at Month 5 improved/no change, % of patients ([2]; 24 mg/day, observed case): (64%)***^‡ | CIBIC-plus at Month 5 improved/no change, % of patients ([2]; 24 mg/day, observed case, listed as galantamine): 64% | Passing the blood-brain barrier ([3]; humans): capable of passing the blood-brain barrier in humans | Side effects ([3]; therapeutically effective dosages): no severe side effects
